The results in this text go back to patent US20170009228A1, “BIOLOGICAL MATERIALS AND THERAPEUTIC USES THEREOF” (IMPERIAL INNOVATIONS LIMITED, priority 2014, published 2017).

Test [1] relates to primary human macrophages. As to the kind of experiment: Stimulation of primary human macrophages with each FBG peptide. Format: cell-based. The following applies: 1 or 20 μM FBG peptide, 24 h. The procedure: (§1) After incubation the tissue was pipetted through a nylon mesh into a sterile beaker. The cells were then washed three times in complete medium (RPMI 1640 supplemented with 10% FCS). RA synovial fibroblasts were isolated from the mixed population of RA membrane cells by selection in DMEM (Bio-Whittaker) supplemented with 10% FBS, […], 100 U/ml penicillin, and streptomycin. Human monocytes were isolated from peripheral blood (London Blood Bank) and macrophages were derived from monocytes after differentiation for 4 days with 100 ng/ml of M-CSF.
(§2) Macrophages were cultured at 1×10^5 cells/well in RPMI 1640 containing 5% (v/v) FBS and 100 U/ml penicillin/streptomycin in 96-well tissue culture plates for 24 h before stimulation. Cells were incubated for 24 h at 37° C. with no addition, 1.0 μM FBG, 1 ng/ml LPS or 1 or 20 μM FBG peptide. Where stated, cells were pre-incubated with 20 μM FBG peptides for 15 min.
(§3) Supernatants were examined for the presence of the cytokines TNF-α, IL-6, and IL-8 by enzyme-linked immunosorbent assay (ELISA) according to the manufacturer's instructions (R&D systems). Absorbance was read on a spectrophotometric ELISA plate reader (Labsystems Multiscan Biochromic, Vantaa, Finland) and analyzed using the Ascent software program (Thermo Labsystems, Altrincham, UK).

The test system of test [2] is MyD88. Description: Cytokine synthesis in embryonic fibroblasts from MyD88 deficient mice. It is filed as cell-based. The conditions noted are these: for cytokine synthesis: MEFs from MyD88 deficient mice, 24 h; for responsiveness after re-transfection of wild type MyD88: MyD88 deficient MEFs, data not shown. On the procedure: (§4) MEFs express high levels of mRNA of all 9 murine TLRs and are specifically and highly responsive to TLR ligand activation. […] MEFs were isolated from d13 embryos harvested from age-matched, pregnant female wild type, TLR2, TLR4 and null mice (as described in Todaro (1963)). Fibroblasts were cultured at 2×10^4 cells/well in DMEM containing 10% (v/v) FBS and 100 U/ml penicillin/streptomycin in 96-well tissue culture plates for 24 hours before stimulation.
(§5) Cells were incubated for 24 hours at 37° C. with the indicated doses of tenascin-C and recombinant tenascin-C fragments (1.0 μM-1.0 nM). Cells were also stimulated where indicated with LPS (1 ng/ml for human macrophages, 10 ng/ml for human fibroblasts, RA membrane cells and HEKs, 100 ng/ml for MEFS and BMDMs and 10 ng/ml for HEKS), PAM3 (10 ng/ml for human macrophages, human fibroblasts, and HEKs, 100 ng/ml for MEFs and BMDMs), murine IL-1 (5 ng/ml for MEFS) and murine TNF-α (100 ng/ml for MEFS). Unless specifically stated otherwise rough LPS was used for in vitro studies.
(§6) Supernatants were subsequently examined for the presence of the cytokines TNF-α, IL-6, and IL-8 by enzyme-linked immunosorbent assay (ELISA) according to the manufacturer's instructions. Absorbance was read on a spectrophotometric ELISA plate reader (Labsystems Multiscan Biochromic, Vantaa, Finland) and analyzed using the Ascent software program (Thermo Labsystems, Altrincham, UK).

Test [3] relates to RA synovial membrane cultures. Description: Spontaneous cytokine synthesis in RA synovial membrane cultures incubated with FBG peptides. The conditions noted are these: for inhibition of cytokine synthesis at the highest concentrations / TNF and IL8 synthesis: RA synovial membrane cultures; for inhibition of cytokine synthesis at the highest concentrations: dose dependent, 25, 100 or 250 μM peptide, 24 h; for TNF and IL8 synthesis: spontaneous cytokine synthesis. It is filed as cell-based, human. On the procedure:
RA membrane cells (representing a mixed population of all synovial cell types) were isolated from synovial membranes obtained from patients undergoing joint replacement surgery (Brennan (1989)). Synovial membrane tissue was digested in RPMI 1640 (GIBCO) containing 5% fetal calf serum (FCS) (GIBCO), 5 mg/ml collagenase type IV (Sigma) and 0 15 mg/ml DNAse type I (Sigma) and incubated at 37° C. for 2 h.
Immediately after isolation, RA membrane cells were cultured at 1×10^5 cells/well in RPMI 1640 containing 10% (v/v) FBS and 100 U/ml penicillin/streptomycin in 96-well tissue culture plates. Cells were incubated for 24 h at 37° C. with no addition, buffer control (PBS, 1% BSA, 0.01% NaN3), or with 25 μm, 100 μM or 250 μM of each FBG spanning peptide.
as §3

In test [4] the test system is human macrophages. As to the kind of experiment: FBG or LPS induced cytokine synthesis in human macrophages pre-incubated with FBG peptides. It is filed as cell-based. The following applies: pre-incubation with 20 μM peptide, 24 h; for FBG mediated cytokine synthesis: then 1 μM whole FBG. The procedure: as §1, §2, §3
The test system of test [5] is primary human macrophages. Description: TNF synthesis in primary human macrophages stimulated with native or citrullinated FBG. It is filed as cell-based. The conditions noted are these: 0.1-1.0 μM, 24 h. On the procedure: Equal volumes of protein and 2× citrullination buffer (200 mM Tris HCl, pH 7.4, 20 mM CaCl2, 10 mM DTT) were mixed. 8.75 U rabbit skeletal PAD (product number P1584 from Sigma) per mg substrate protein was added and incubated for 3 hours at 37° C. or 2 hours at 50° C. Citrullination was confirmed by size shift visualized by coomassie blue staining of SDS PAGE or by AMC detection.
Primary human macrophages were isolated as described above and cultured at 1×10^5 cells/well in RPMI 1640 containing 5% (v/v) FBS and 100 U/ml penicillin/streptomycin in 96-well tissue culture plates for 24 h before stimulation. Cells were incubated for 24 h at 37° C. with no addition (UN), different concentrations (uM) of native FBG (nFBG) or cit FBG (cFBG) or citrullination buffer alone (CIT) or cit buffer plus PAD enzyme (CIT+PAD).
Supernatants were examined for the presence of the cytokines TNF-α by enzyme-linked immunosorbent assay (ELISA) according to the manufacturer's instructions (R&D systems). Absorbance was read on a spectrophotometric ELISA plate reader (Labsystems Multiscan Biochromic, Vantaa, Finland) and analyzed using the Ascent software program (Thermo Labsystems, Altrincham, UK).

Test [6] has as its system human dermal fibroblasts (HDF). As to the kind of experiment: Cell adhesion to coated FBG, human dermal fibroblasts. Format: cell-based. The conditions noted are these: coated wells, 45 minutes, crystal violet. The procedure:
(§7) (A) The sequence identified to bind integrin ≢vβ3 is shown in white (Yokoyama et al., 2000). Within this sequence two Arginines (shown in black) were identified to be citrullinated. (B) Wells of a 96 well plate were coated with different concentrations of FBG, citrullinated FBG (cFBG), FBG incubated in buffer without Calcium (FBG —Ca^2+), or FBG incubated without PAD (FBG -PAD). As a positive control wells were coated with Fibronectin (FN) (1 ug/ml), and coating with BSA (10 mg/ml) served as negative control. Plates were incubated with human dermal fibroblasts (HDF) or synovial fibroblasts from RA patients (RAF) for 45 minutes and adhesion was measured by determining absorbance of attached cells after staining with crystal violet (0.1%). Data are shown as the mean of at least four independent experiments+s.e.m., *=p<0.05, **=p<0.01.

Test [7] deals with synovial fibroblasts from RA patients (RAF). As to the kind of experiment: Cell adhesion to coated FBG, RA synovial fibroblasts. Format: cell-based, human. The following applies: coated wells, 45 minutes, crystal violet. The procedure:
as §7

Test [8] has as its system RA sera. Description: IgG response to cyclic citrullinated FBG peptides in RA and control sera. It is filed as binding, human. The following applies: 20 RA and 20 control sera. An excerpt: (A) Peptides with sequences corresponding to the amino acid sequence of FBG were designed, with the addition of cysteine residues at the amino and carboxy termini and the exchange of arginine for citrulline residues at positions identified by LC-MS/MS. (B) IgG response to citrullinated FBG peptides and arginine containing control peptides in patients with rheumatoid arthritis (RA; n=20) and healthy controls (n=20). The 95th percentile of the control sera was used to determine positivity (dashed line). Mann-Whitney U test was used to calculate p values for differences between groups (n.s.=no significant difference, *=p<0.05 and **=p<0.01, ***=p<0.001, […]).
With reference to FIG. 31, the antibody response in 20 RA and 20 control sera to 6 cyclic FBG peptides, encompassing citrulline residues was evaluated.

In test [9] the test system is TLR4. Description: Cytokine synthesis in embryonic fibroblasts or macrophages from TLR4 deficient mice. Format: cell-based. On the procedure: as §4
(§8) BMDMs were derived by aspirating the femurs of age matched female wild type, TLR2 and TLR4 null mice as described in Butler (1999)) and culturing the cells for 7 days in DMEM, 20% (v/v) FBS, 10 ml/L (v/v) antibiotic-antimycotic solution PSA, 50 μM β-Mercaptoethanol and 10 ng/ml M-CSF. Macrophages were then cultured at 1×10^5 cells/well in DMEM, 20% (v/v) FBS, 10 ml/L (v/v) antibiotic-antimycotic solution PSA, 50 μM β-Mercaptoethanol in 96-well tissue culture plates for 24 hours before stimulation.
as §5, §6

The subject of test [10] is TLR2. Description: Cytokine synthesis in embryonic fibroblasts or macrophages from TLR2 deficient mice. It is filed as cell-based. On the procedure:
as §4, §8, §5, §6

Where no end group is shown, it is not given here. [ ]: non-standard residue; d: D form. Cit = NC(=O)NCCC[C@H](N)C(=O)O

As to “KTRYKLKVEGYSGTAGDSMAYHNGRSFST [Peptide 6]”, the cytokine synthesis entry in test [1] is “induced cytokine synthesis in a dose dependent manner”.
Regarding TNF-α [reference compound], the cytokine synthesis result in test [2] is reported as “unaffected”.
Take “ELRVDLRDHGETAFAVYDKFSVGDAKTRYK [Peptide 5]”: the TNF synthesis entry in test [3] (RA membrane cells, 24 h with peptide) is reported as “no effect”. Besides, the “maximal inhibition of IL8 synthesis” value in [3] (RA membrane cells, dose dependent) is 81%. In addition, the cytokine synthesis entry in test [1] is “induced cytokine synthesis in a dose dependent manner”. For the same molecule, in test [4], the “FBG mediated cytokine synthesis” value is listed as “specifically blocked”.
As for “cFBG: FBG domain of tenascin-C citrullinated in vitro with PAD”, the “cytokine (TNFα) synthesis compared with native FBG” value in [5] is on record as “better at stimulating cytokine (e.g. TNFα) synthesis”. Moreover, in [6], the “adhesion of human dermal fibroblasts (HDF)” value is recorded as “reduces adhesion”. In test [7], the “adhesion of synovial fibroblasts from RA joints (RAF)” value is “reduces adhesion”.
“WYRNCHRVNLMGRYGDNNHSQGVNWFHWKG [Peptide 8]”: in test [3], the “inhibition of cytokine synthesis at the highest concentrations” value was 56%. In test [3] (24 h with peptide), the “TNF and IL8 synthesis” value is recorded as “inhibited”. Further, the “cytokine synthesis in response to LPS” value in test [4] (then 1 ng/ml LPS) is listed as “blocked”. For the same molecule, the “FBG mediated cytokine synthesis” value in [4] is “blocked”.
Turning to “CEMKL-Cit-PSNF-Cit-NLEGRRKRC (CEMKL[Cit]PSNF[Cit]NLEGRRKRC; not fully specified (bridges); printed as CEMKL-Cit-PSNF-Cit-NLEGRRKRC; also: cyclic, bridge not given here) [CIT209/214]”, the “antibody response in RA sera and control sera” value (from here on “antibody response”) in test [8] is “detected in RA sera but not control sera”.
For the molecule Pam3Cys-Ser-Lys4 [reference compound], the cytokine synthesis result in [2] is recorded as “abolished”; in test [9], “did respond”; in test [10], “unresponsive”. In addition, the “responsiveness after re-transfection of wild type MyD88” value in [2] was “restored the responsiveness”.
In the case of “CEMKLRPSNFRNLEG-Cit-Cit-KRC (CEMKLRPSNFRNLEG[Cit][Cit]KRC; not fully specified (bridges); printed as CEMKLRPSNFRNLEG-Cit-Cit-KRC; also: cyclic, bridge not given here) [CIT219/220]”, the “antibody response” value in [8] was “detected in RA sera but not control sera”.
In the case of “TIGLLYPFPKDCSQAMLNGDTTSGLYTIYL [Peptide 1]”, in [1], the cytokine synthesis entry is “induced cytokine synthesis in a dose dependent manner”.
As to “WIVFLRRKNGRENFYQNWKAYAAGFGDRRE [Peptide 3]”, the “inhibition of cytokine synthesis at the highest concentrations” value in test [3] is reported as 95%. Besides, the “TNF and IL8 synthesis” value in [3] (24 h with peptide) is “inhibited”.
As for “CVFLRRKNG-Cit-ENFYQNWC (CVFLRRKNG[Cit]ENFYQNWC; not fully specified (bridges); printed as CVFLRRKNG-Cit-ENFYQNWC; also: cyclic, bridge not given here) [CIT55]”, the “antibody response” value in test [8] is on record as “detected in RA sera but not control sera”.

B1: IL-1: murine IL-1 used to stimulate MEFs (protein, UniProt P10749 118-269, looked up)
Interleukin-1 beta: VPIRQLHYRLRDEQQKSLVLSDPYELKALHLNGQNINQQVIFSMSFVQGEPSNDKIPVALGLKGKNLYLSCVMKDGTPTLQLESVDPKQYPKKKMEKRFVFNKIEVKSKVEFESAEFPNWYISTSQAEHKPVFLGNNSGQDIIDFTMESVSS
Turning to B1, the cytokine synthesis entry in [2] is listed as “abolished”; in test [9], “did respond”; in [10], “responsive”. For the same molecule, the “responsiveness after re-transfection of wild type MyD88” value in [2] is reported as “restored the responsiveness”.
